This test has as its system ST2 cells, murine bone marrow-derived stromal cells. The test is described as follows: Osteoblast differentiation test (ALP activity). The test is classed as cell-based. Conditions: Mus musculus, ST-2, 96 h, at 0.1 μg/mL, control group (0.1% DMSO) = 100%, four days of culturing, read-out: alkaline phosphatase activity. The method, then: ST2 cells, murine bone marrow-derived stromal cells, (obtained from RIKEN) were used.
In this test, α-MEM media (obtained from GIBCO BRL Cat. No. 10370-021) containing 10% (v/v) of inactivated calf serum (obtained from Hyclone Laboratories, Inc.) and 1% (v/v) of Penicillin-Streptomycin Liquid (obtained from GIBCO BRL Cat. No. 15140-122) (hereinbelow, abbreviated as 10%-FBS-αMEM) were used. In this test, all culturing was performed in a CO2 incubator (37° C., 95% humidity, 5% CO2).
The aforementioned cells were detached with 2 mL of a 0.25% trypsin solution (obtained from GIBCO BRL Cat. No. 15050-065) and dispersed in 10 mL of 10%-FBS-αMEM. Subsequently, the cells were collected by centrifugation (25° C., 800 rpm, five minutes). Then, a cell suspension containing 40000 of the cells/mL of 10%-FBS-αMEM was prepared. The cell suspension was then dispensed into 96-well plates (the product of Falcon), 100 μL per well, at a density of 4000 cells/well, followed by culturing for 24 hours. To the wells, except for the below-described well containing a control group, the compound was dispensed at final concentrations of 0.01, 0.03, 0.1, and 0.3 μg/ml. To the well of a control group, DMSO was dispensed at a final concentration of 0.1% (v/v). After four days of culturing, the activity of alkaline phosphatase (ALP) was measured in each group.
The measurement of ALP activity was performed as follows. That is, the medium in each well of the culture plates was completely removed. Each well was then washed by dispensing 100 μL of Dulbecco's phosphate buffer (obtained from GIBCO BRL Cat. No. 14190-144) and then removing it. A cell lysate solution containing 10 mM MgCl2 and 2% (v/v) TritonX-100 (Sigma) was prepared and dispensed at 50 μL/well, followed by stirring at room temperature for five minutes. An ALP substrate solution containing 50 mM diethanolamine (Wako Pure Chemical Industries, Ltd., Cat. No. 099-03112) and 20 mM p-nitrophenyl phosphate (Wako Pure Chemical Industries, Ltd., Cat. No. 147-02343) was prepared and dispensed at 50 μL/well, and the plates were left to stand at room temperature for 10 minutes. Subsequently, absorbance was measured by a microplate reader (Bio-Rad Laboratories, Inc.). Setting the measurement value of the control group of each plate at 100%, alkaline phosphatase activity (increase (%)) in the test compound-addition group was calculated, which was assessed as the degree of osteoblast differentiation.

With `OCCOc1ccc(-c2cnc3ccc(-c4cc[nH]c4)cn23)cc1` [Example 8, 2-{4-[6-(1H-Pyrrol-3-yl)imidazo[1,2-a]pyridin-3-yl]phenoxy}ethanol], the activity at 0.1 µg/mL is ≥ 200%.
For `COc1ccc2ncc(-c3ccc(NCCO)cc3)n2c1` [Example 123], the activity at 0.1 µg/mL is ≥ 200%.
As for `CC(=O)N1CCC(OCCOc2ccc(-n3cnc4ccccc43)cc2)CC1` [Example 46], the activity at 0.1 µg/mL is ≥ 200%.
In the case of `OCCOC1CCN(c2cnc3cc(-c4ccncc4)ccn23)CC1` [Example 76], the activity at 0.1 µg/mL was ≥ 200%.
`OCCOc1ccc(-c2cnc3ccc(-c4ccncc4)cn23)cc1` [Example 71]: the activity at 0.1 µg/mL was ≥ 200%.
In the case of `CS(=O)(=O)c1ccc(-c2ccc3c(c2)ncn3-c2ccc(OCCO)cc2)cn1` [Example 129], the activity at 0.1 µg/mL is ≥ 200%.
The result for `OCCOc1ccc(-n2cnc3ccc(Cl)cc32)cc1` [Example 31] reads ≥ 200%.
For the molecule `N#Cc1ccc(-c2ccc3c(c2)ncn3-c2ccc(OCCO)cc2)cc1` [Example 51], the activity at 0.1 µg/mL was ≥ 200%.
`Fc1ccc2ncn(-c3ccc(OCCOC4CCOCC4)cc3)c2c1` [Example 48]: the activity at 0.1 µg/mL was ≥ 200%.
The result for `c1ccc2c(c1)ncn2-c1ccc(NCCOC2CCOCC2)cc1` [Example 101] reads ≥ 200%.
Regarding `O=C(c1ccc(-c2ccn3c(-c4ccc(OCCOC5CCOCC5)cc4)cnc3c2)cn1)N1CCOCC1` [Example 133], the activity at 0.1 µg/mL is ≥ 200%.
The result for `Clc1ccc2ncc(-c3ccc(OCCOC4CCOCC4)cc3)n2c1` [Example 131] reads ≥ 200%; that for `C#Cc1ccc2ncc(-c3ccc(OCCOC4CCOCC4)cc3)n2c1` [Example 21, 6-Ethynyl-3-{4-[2-(tetrahydro-2H-pyran-4-yloxy)ethoxy]phenyl}imidazo[1,2-a]pyridine], ≥ 200%.
Turning to `O=C(O)c1ccc(-c2ccc3c(c2)ncn3-c2ccc(OCCO)cc2)cc1` [Example 13, 4-{1-[4-(2-Hydroxyethoxy)phenyl]-1H-benzimidazol-5-yl}benzoic acid], the activity at 0.1 µg/mL was ≥ 200%.

For the origin of these results see patent US20130029964A1, “[5, 6] HETEROCYCLIC COMPOUND” (DAIICHI SANKYO COMPANY, LIMITED, priority 2010, published 2013).
